≈ marks a conversion by molar mass, not a printed value. Calls of active or inactive are those of the source. No cut-off for these calls is given here.
Assays:
[1] = test system: P388; test: Antitumor activity against mouse P388 cells in iv dosed in vivo system; format: functional, organism-based
[2] = test system: Enterococcus faecalis; test: Antimicrobial activity against Enterococcus faecalis A25707 by serial twofold dilution method; format: functional
[3] = test system: Enterococcus faecalis; test: Antimicrobial activity against Enterococcus faecalis A25708 by serial twofold dilution method; format: functional
[4] = test system: Escherichia coli; test: Antimicrobial activity against Escherichia coli A9751 by serial twofold dilution method; format: functional
[5] = test system: Klebsiella pneumoniae; test: Antimicrobial activity against Klebsiella pneumoniae A20468 by serial twofold dilution method; format: functional
[6] = test system: Escherichia coli; test: Antimicrobial activity against Escherichia coli A20697 by serial twofold dilution method; format: functional
[7] = test system: B16; test: Cytotoxicity against mouse B16-PRIM cells; format: functional, cell-based
[8] = test system: HCT-116; test: Cytotoxicity against human HCT116 cells; format: functional, cell-based
[9] = test system: Escherichia coli; test: Antimicrobial activity against Escherichia coli A15119 by serial twofold dilution method; format: functional
[10] = test system: Pseudomonas aeruginosa; test: Antimicrobial activity against Pseudomonas aeruginosa A9843 by serial twofold dilution method; format: functional
[11] = Cytotoxicity against human HCT/VP35 cells; format: functional, cell-based
[12] = test system: Enterococcus faecalis; test: Antimicrobial activity against Enterococcus faecalis A20688 by serial twofold dilution method; format: functional
[13] = test system: Klebsiella pneumoniae; test: Antimicrobial activity against Klebsiella pneumoniae A9664 by serial twofold dilution method; format: functional
[14] = test system: Proteus vulgaris; test: Antimicrobial activity against Proteus vulgaris A21559 by serial twofold dilution method; format: functional
[15] = test system: Staphylococcus aureus; test: Antimicrobial activity against Staphylococcus aureus A9537 by serial twofold dilution method; format: functional
[16] = test system: Staphylococcus aureus; test: Antimicrobial activity against Staphylococcus aureus A20698 by serial twofold dilution method; format: functional
[17] = test system: A549; test: Cytotoxicity against human A549 cells; format: functional, cell-based
[18] = test system: Pseudomonas aeruginosa; test: Antimicrobial activity against Pseudomonas aeruginosa A20235 by serial twofold dilution method; format: functional
[19] = test system: P388; test: In vivo antitumor activity against mouse P388 cells at 1 to 3 ug/kg, ip; format: functional
[20] = test system: Staphylococcus aureus; test: Antimicrobial activity against Staphylococcus aureus A24407 by serial twofold dilution method; format: functional
[21] = test system: A549; test: Cytotoxicity against […]-resistant human A549 cells; format: functional, cell-based

With `C=C(OC)C(=O)Nc1cc(OC)c(OC)cc1C(=O)O[C@H]1C[C@H](O[C@@H]2C(=O)C(NC(=O)OC)=C3/C(=C\CSSSC)[C@]2(O)C#C/C=C\C#C[C@@H]3O[C@@H]2O[C@H](C)[C@@H](NO[C@H]3C[C@H](O)[C@H](SC)[C@@H](C)O3)[C@H](O)[C@H]2O[C@H]2C[C@H](OC)[C@@H](NC(C)C)CO2)O[C@@H](C)[C@H]1O` the Activity [1] was “Active”.
`C=C(OC)C(=O)Nc1cc(OC)c(OC)cc1C(=O)O[C@H]1C[C@H](O[C@@H]2C(=O)C(NC(=O)OC)=C3/C(=C\CSSSSC)[C@]2(O)C#C/C=C\C#C[C@@H]3O[C@@H]2O[C@H](C)[C@@H](NO[C@H]3C[C@H](O)[C@H](SC)[C@@H](C)O3)[C@H](O)[C@H]2O[C@H]2C[C@H](OC)[C@@H](NC(C)C)CO2)O[C@@H](C)[C@H]1O` [ESPERAMICIN P] showed an MIC [2] of 0.002 µg/mL (≈ 1.47 nM), an MIC [3] of 0.002 µg/mL (≈ 1.47 nM) and an MIC [4] of 0.016 µg/mL (≈ 11.8 nM). The MIC [5] was 1 µg/mL (≈ 737 nM), the MIC [6] was 0.25 µg/mL (≈ 184 nM) and the IC50 [7] was > 0.002 µg/mL. The IC50 [8] was < 0.002 µg/mL, the MIC [9] was 0.25 µg/mL (≈ 184 nM) and the MIC [10] was 0.25 µg/mL (≈ 184 nM). For the same molecule, the IC50 [11] was < 0.002 µg/mL, the MIC [12] was 0.002 µg/mL (≈ 1.47 nM) and the MIC [13] was 1 µg/mL (≈ 737 nM). For the same molecule, the MIC [14] was 0.13 µg/mL (≈ 95.8 nM), the MIC [15] was 0.001 µg/mL (≈ 0.737 nM) and the MIC [16] was 0.001 µg/mL (≈ 0.737 nM). The Activity [1] was “inactive”, the IC50 [17] was 0.01 µg/mL (≈ 7.37 nM) and the MIC [18] was 0.13 µg/mL (≈ 95.8 nM). The T/C [19] was 145%, the MIC [20] was 0.001 µg/mL (≈ 0.737 nM) and the IC50 [21] was 0.01 µg/mL (≈ 7.37 nM).
